Each block holds one sequence with its values, some of them ahead of it. No end group written: not given here.
Columns and labels:
Format in all cases: physicochemical
[1] = Freeze–thaw stability of model peptides, UPLC-MS; details: 150 µg/mL in PBS, two freeze–thaw cycles, fivefold on three consecutive days
Method: A UPLC-MS system was used for the development and validation of the stability-indicating analytical method. The apparatus, column, flow rate, mobile phase A, mobile phase B, mass acquisition, and sample run time were: UPLC UltiMate 3000 RSLC System (Thermo Fisher Scientific, Waltham, MA, USA) coupled to a Q Exactive Orbitrap Mass Spectrometers (Thermo Fisher Scientific, Waltham, MA, USA); Acquity UPLC Peptide CSH C18, 130 Å, 1.7 µm, 2.1 mm × 150 mm (Waters Corporation, Milford, MA, USA); 0.40 mL/min; 0.013% ammonium formate and 0.1% formic acid dissolved in ultrapure water (pH 2.8); 0.013% ammonium formate and 0.1% formic acid dissolved in a mixture of 0.495:0.495:0.10 methanol, acetonitrile, and ultrapure water; masses scanned from 300.0–1900.0 m/z; 15 min; respectively. The mobile phase gradient started at t0 min with 98% of mobile phase A that was gradually adjusted to 40% at t9 min. At t9.1 min, mobile phase A was set at 2% till t11.1 min. At t11.2 min, mobile phase A was set at 98% until the end of the sample run time.
For each peptide, six stock concentrations in the range of 5–225 µg/mL dissolved in PBS were made. The linear relationship of the calibration curves was investigated by regression analysis. The linear correlation coefficient (R^2), goodness of fit, and lack of fit were analyzed. For the accuracy and precision tests, samples of 50 µg/mL, 150 µg/mL, and 225 µg/mL were analyzed in triplicate on three consecutive days to determine the closeness of agreement of the measurements compared to the analyzed concentrations (accuracy % bias) and repeated experiments (relative standard deviations (RSD)). For the sensitivity test, peptide samples at 5 µg/mL were analyzed in triplicate on three consecutive days and the signal-to-noise (S/N) ratio was calculated from representative chromatograms. For the freeze–thaw experiment, samples at 150 µg/mL for each of the three peptides were prepared and analyzed in fivefold on three consecutive days after each sample was subjected to two freeze–thaw cycles before the analysis was initiated.

[2] = Release testing and long-term (frozen) stability of aqueous peptide mixtures (143 µg/mL per peptide in PBS 10 mM pH 7.0), UPLC-MS
[3] = In-use stability of thawed aqueous peptide mixtures at room temperature, UPLC-MS; details: 4 h room temperature
[4] = Filter experiment: peptide adsorption to the 0.22 µm sterilization filter, UPLC-MS; details: unfiltered sample

Freeze–thaw stability, average bias [1]: 1%
Sequence: SAMEKRGARETQQQRKRVFRGRGVNSAK [FRM001P11]

Peptide peak ratio ([2]; in FRM001-M4, 2 w −25 °C): 13.6%
Peptide peak ratio ([2]; in FRM001-M4, 4 w −25 °C): 14.6%
Peptide peak ratio ([2]; in FRM001-M4, 8 w −25 °C): 14.7%
Peptide peak ratio ([2]; in FRM001-M4, 8 w −80 °C): 14.9%
Peptide peak ratio ([2]; in FRM001-M4, 12 w −25 °C): 14.4%
Peptide peak ratio ([2]; in FRM001-M4, 12 w −80 °C): 14.6%
Peptide peak ratio ([2]; in FRM001-M4, 16 w −25 °C): 13.3%
Peptide peak ratio ([2]; in FRM001-M4, 16 w −80 °C): 13.1%
Peptide peak ratio ([2]; in FRM001-M4, 32 w −25 °C): 13.6%
Peptide peak ratio ([2]; in FRM001-M4, 32 w −80 °C): 13.9%
Peptide peak ratio ([2]; in FRM001-M4, t = 0 w): 14.2%
Peptide peak ratio ([3]; in FRM001-M4, 2 w −25 °C): 13.4%
Peptide peak ratio ([3]; in FRM001-M4, 4 w −25 °C): 14.5%
Peptide peak ratio ([3]; in FRM001-M4, 8 w −25 °C): 14.4%
Peptide peak ratio ([3]; in FRM001-M4, 8 w −80 °C): 14.7%
Peptide peak ratio ([3]; in FRM001-M4, 12 w −25 °C): 14.6%
Peptide peak ratio ([3]; in FRM001-M4, 12 w −80 °C): 14.4%
Peptide peak ratio ([3]; in FRM001-M4, 16 w −25 °C): 13.1%
Peptide peak ratio ([3]; in FRM001-M4, 16 w −80 °C): 13.0%
Peptide peak ratio ([3]; in FRM001-M4, 32 w −25 °C): 13.5%
Peptide peak ratio ([3]; in FRM001-M4, 32 w −80 °C): 13.4%
Peak ratio ([4]; in FRM001M4): 14.1%
Sequence: GVDYASCGHLVKIWPRRMNRSDVCTVWS [FRM001P13, neoantigen peptide, in FRM001-M4]

Peptide peak ratio ([2]; in FRM001-M1, 2 w −25 °C): 15.0%
Peptide peak ratio ([2]; in FRM001-M1, 4 w −25 °C): 14.6%
Peptide peak ratio ([2]; in FRM001-M1, 8 w −25 °C): 15.2%
Peptide peak ratio ([2]; in FRM001-M1, 8 w −80 °C): 15.0%
Peptide peak ratio ([2]; in FRM001-M1, 12 w −25 °C): 15.9%
Peptide peak ratio ([2]; in FRM001-M1, 12 w −80 °C): 15.5%
Peptide peak ratio ([2]; in FRM001-M1, 16 w −25 °C): 15.4%
Peptide peak ratio ([2]; in FRM001-M1, 16 w −80 °C): 15.3%
Peptide peak ratio ([2]; in FRM001-M1, 32 w −25 °C): 13.4%
Peptide peak ratio ([2]; in FRM001-M1, 32 w −80 °C): 14.2%
Peptide peak ratio ([2]; in FRM001-M1, t = 0 w, % area of peptide peak of sum of the six peptide peaks): 15.0%
Peptide peak ratio ([2]; in FRM001-M4, 2 w −25 °C): 14.5%
Peptide peak ratio ([2]; in FRM001-M4, 4 w −25 °C): 15.4%
Peptide peak ratio ([2]; in FRM001-M4, 8 w −25 °C): 15.1%
Peptide peak ratio ([2]; in FRM001-M4, 8 w −80 °C): 15.2%
Peptide peak ratio ([2]; in FRM001-M4, 12 w −25 °C): 15.1%
Peptide peak ratio ([2]; in FRM001-M4, 12 w −80 °C): 14.8%
Peptide peak ratio ([2]; in FRM001-M4, 16 w −25 °C): 12.5%
Peptide peak ratio ([2]; in FRM001-M4, 16 w −80 °C): 12.5%
Peptide peak ratio ([2]; in FRM001-M4, 32 w −25 °C): 12.9%
Peptide peak ratio ([2]; in FRM001-M4, 32 w −80 °C): 14.7%
Peptide peak ratio ([2]; in FRM001-M4, t = 0 w): 14.4%
Peptide peak ratio ([3]; in FRM001-M1, 2 w −25 °C): 15.2%
Peptide peak ratio ([3]; in FRM001-M1, 4 w −25 °C): 14.8%
Peptide peak ratio ([3]; in FRM001-M1, 8 w −25 °C): 15.3%
Peptide peak ratio ([3]; in FRM001-M1, 8 w −80 °C): 15.2%
Peptide peak ratio ([3]; in FRM001-M1, 12 w −25 °C): 15.3%
Peptide peak ratio ([3]; in FRM001-M1, 12 w −80 °C): 15.3%
Peptide peak ratio ([3]; in FRM001-M1, 16 w −25 °C): 15.5%
Peptide peak ratio ([3]; in FRM001-M1, 16 w −80 °C): 15.6%
Peptide peak ratio ([3]; in FRM001-M1, 32 w −25 °C): 14.1%
Peptide peak ratio ([3]; in FRM001-M1, 32 w −80 °C): 14.1%
Peptide peak ratio ([3]; in FRM001-M4, 2 w −25 °C): 14.7%
Peptide peak ratio ([3]; in FRM001-M4, 4 w −25 °C): 15.5%
Peptide peak ratio ([3]; in FRM001-M4, 8 w −25 °C): 15.3%
Peptide peak ratio ([3]; in FRM001-M4, 8 w −80 °C): 15.5%
Peptide peak ratio ([3]; in FRM001-M4, 12 w −25 °C): 14.8%
Peptide peak ratio ([3]; in FRM001-M4, 12 w −80 °C): 15.1%
Peptide peak ratio ([3]; in FRM001-M4, 16 w −25 °C): 12.4%
Peptide peak ratio ([3]; in FRM001-M4, 16 w −80 °C): 12.4%
Peptide peak ratio ([3]; in FRM001-M4, 32 w −25 °C): 13.1%
Peptide peak ratio ([3]; in FRM001-M4, 32 w −80 °C): 14.9%
Peak ratio ([4]; in FRM001M1): 14.8%
Peak ratio ([4]; in FRM001M4): 14.9%
Sequence: GCHLFSKRKCSQNKQSKRGKSRFYLSWRPL [FRM001P01, neoantigen peptide of lung tumor LUN021, in FRM001-M1 and FRM001-M4]

Freeze–thaw stability, average bias [1]: 4%
Sequence: VTLEERLDKACEPGVDYDGQTGVIHFQPRG [FRM001P23]
